Source: PMC11438102, “Modulation of cannabinoid receptor 2 alters neuroinflammation and reduces formation of alpha-synuclein aggregates in a rat model of nigral synucleinopathy” (Journal of Neuroinflammation, 2024)

What was measured:
[1] = Blood brain barrier penetration / pharmacokinetics of SMM-189 in mice; type: in vivo; conditions: 6 mg/kg
Method: Analysis of the brain-to-blood ratios of SMM-189 were performed by Sai Life Sciences Limited (Telangana, India). All procedures of the study were in accordance with the guidelines provided by the Committee for the Purpose of Control and Supervision of Experiments on Animals (CPCSEA) as published in The Gazette of India, December 15, 1998. Prior approval of the Institutional Animal Ethics Committee (IAEC) was obtained before initiation of the study. In brief, 54 mice were weighed and divided as Group 1 (6 mg/kg, i.p.) and Group 2 (6 mg/kg, by oral (p.o.)). Animals in Group 1 and Group 2 were administered intraperitoneally and orally with SMM-189 solution formulation at 6 mg/kg in 5% Ethanol, 5% Cremophor and 90% Normal Saline, respectively. The blood samples were collected under light isoflurane anesthesia at 0.08, 0.25, 0.5, 1, 2, 4, 8, 12 and 24 h (i.p.) and 0.25, 0.5, 1, 2, 4, 6, 8, 12 and 24 h (p.o.) in labeled micro centrifuge tube containing K2EDTA as anticoagulant. After blood collection, plasma was harvested by centrifugation and stored at -70 °C until analysis. Immediately after collection of blood, brain samples were collected from set of three mice at each time point at 0.08, 0.25, 0.5, 1, 2, 4, 8, 12 and 24 h (Group 1; i.p.) and 0.25, 0.5, 1, 2, 4, 6, 8, 12 and 24 h (Group 2; p.o.). Brain samples were homogenized using ice-cold phosphate buffer saline (pH-7.4) in a ratio of 2 (buffer):1(brain); and homogenates were stored below − 70 ± 10 °C until analysis. Total homogenate volume was three times the brain weight. All samples were processed for analysis by protein precipitation using acetonitrile and analyzed with fit-for-purpose LC-MS/MS method (LLOQ = 1.02 ng/mL for plasma and 6.09 ng/g for brain).
Non-compartmental-analysis module in Phoenix WinNonlin® (Version 6.3) was used to assess the pharmacokinetic parameters. Maximum concentration (Cmax) and time to reach the maximum concentration (Tmax) were the observed values. The areas under the concentration time curve (AUClast and AUCinf) were calculated by linear trapezoidal rule. The terminal elimination rate constant, ke was determined by regression analysis of the linear terminal portion of the log plasma concentration-time curve. The terminal half-life (T1/2) was estimated as 0.693/ke.

[2] = tested on: brain immune cells; experiment: Multicolor flow cytometry of brain immune cells (high cohort); type: in vivo, rat
Method: An additional cohort of rats (termed “high cohort”) was evaluated to determine effects of SMM-189 on immune cell populations in the brain, resident or infiltrating, and the periphery as measured by flow cytometry (Fig. 1). To ensure infiltrating peripheral immune cells, rats were stereotaxically injected with a higher titer of AAV2/5-human WT Asyn (4.6 × 10^12 vg/mL) and underwent an identical drug treatment timeline with animals sacrificed at 4 (SMM-189: n = 5; vehicle: n = 6) and 8 weeks (SMM-189: n = 7; vehicle: n = 7). At sacrifice, animals were deeply anesthetized with euthasol (i.p., 150 mg/kg) and rapid decapitation performed using a sharp guillotine. Brains were collected at endpoints, and brain immune cells isolated and evaluated using multicolor flow cytometry. Additionally, blood was collected at baseline, 4 and 8 weeks (SMM-189: n = 13; vehicle: n = 13) after stereotaxic surgery for PBMCs isolation to immunophenotype using flow cytometry and for plasma evaluation of SMM-189.
Brains were collected from animals in the high cohort at either 4 or 8 weeks after AAV2/5-human WT Asyn and brain immune cells were isolated from individual hemispheres as previously described. Hemispheres were finely cut in RPMI 1640 media (Gibco Cat#11875-093) with a scalpel blade and enzymatically dissociated with collagenase VIII (1.4U/mL; Sigma Cat#C2139) and DNAse1 (1 mg/mL; Sigma Cat#DN25) in 37°C for 15 min. Enzymes were neutralized with 10%FBS (heat inactivated, Atlanta Biologicals Cat#S11150) in RPMI 1640 complete media and centrifuged 400g at room temperature. Tissue was resuspended in 1x HBSS and mechanically dissociated using a fire-polished Pasteur pipette until a cell suspension was generated. The suspension was passed through a 70µM cell strainer and strainers rinsed twice with 1x HBSS. To remove myelin, the strained suspension was centrifuged at 300g at 4 °C for 5 min and resuspended in 37% percoll and layered between 70% and 30% percoll gradients. The samples were centrifuged at 400g for 30 min at room temperature with the brake disabled. The top myelin layer was aspirated and demyelinated immune cells were collected from the 37% and 70% percoll interface with a pipette and washed with 1x HBSS twice, resuspended in PBS and placed in a 96-well v-bottom plate for flow cytometry staining.
Peripheral and central immune cell staining was performed similarly as previously published protocols. In brief, immune cells were washed and resuspended in PBS, then incubated for 30 min at room temperature in LIVE/DEAD Fixable Red Dead cell stain (ThermoFisher Scientific Cat#L23102; 1:2000). Following two washes in PBS, Fc receptors were blocked with anti-rat CD32 Fc block diluted 1:100 in FACS buffer (1mM EDTA and 0.1% sodium azide in PBS) for 15 min at 4°C. PBMCs were stained for separate myeloid and lymphoid panels and brain immune cells stained with an antibody panel to identify microglia, monocytes and lymphocytes (Table S1-S3). Fluorophore conjugated antibodies diluted with FACS buffer were incubated at 4 °C for 20 min. Cells stained for surface myeloid markers were fixed in 1% PFA for 25 min and washed in FACS.
PBMCs stained with lymphoid panel were further probed intracellularly for transcriptional marker Foxp3 to label […] T cells. […] Then washed and resuspended in FACs buffer. All samples had 10uL of AccuCheck Counting beads (ThermoFisher Cat#PCB100) added to final suspension and cells were run on a LSRII Instrument (BD Biosciences, Franklin Lakes, NJ) with FACSDiva software (BD Biosciences). Results were analyzed using FlowJo 10.8.1 software and brain immune populations of monocytes (classical and non-classical), lymphocytes (CD4 + and CD8+) or microglia and PBMC populations defined by specific strategies (Figure S1-S3). […]

[3] = 4 weeks, high cohort, treatment effect vs vehicle
[4] = 8 weeks, high cohort, treatment effect
[5] = 8 weeks, high cohort, vs control
[6] = 8 weeks, high cohort, vs vehicle

`O=C(c1ccccc1)c1cc(O)c(-c2cc(Cl)cc(Cl)c2)c(O)c1` [SMM-189] gave a Cmax ([1]; brain, i.p.) of 204.64 ng/mL, a Tmax ([1]; brain, i.p.) of 30 min and a Cmax ([1]; brain, p.o.) of 70.34 ng/mL. The Tmax ([1]; brain, p.o.) was 15 min, the “Brain/plasma ratio (Cmax)” value ([1]; i.p.) was 0.74 and the “Brain/plasma ratio (Cmax)” value ([1]; p.o.) was 1.63. The Cmax ([1]; plasma, i.p.) was 277.07 ng/mL, the Tmax ([1]; plasma, i.p.) was 30 min and the Cmax ([1]; plasma, p.o.) was 43.15 ng/mL. For the same compound, the Tmax ([1]; plasma, p.o.) was 15 min, the “CD3+ lymphocytes parent population in brain” value ([2]; 4 weeks, high cohort) was “No CD3 + lymphocytes parent population differences” and the “CD8 T cell frequencies in brain” value ([2]; 4 weeks, high cohort) was “not significantly different”. The “MHCII MFI on microglia” value ([2]; 4 weeks, high cohort) was “no changes”, the “classical or non-classical monocyte subset frequencies in brain” value ([2]; 4 weeks, high cohort) was “no treatment differences” and the frequency of microglia ([2]; 4 weeks, high cohort) was “no difference”. For the same compound, the “frequencies of CD4+ T cells in brain” value ([2]; 4 weeks, high cohort, treatment effect) was “overall reduction”, the “frequency of CD45hiCD11b myeloid/monocytes in brain” value [2, 3] was “reduced” and the “frequency of CD163+ macrophages in brain” value [2, 3] was “reduced”. For the same compound, the “MFI of CD11b on microglia” value ([2]; 4 weeks, unlesioned hemispheres, vs control) was “reduced”, the “intensity of MHCII on microglia” value ([2]; 8 weeks, high cohort) was “no different” and the “microglial MFI of CD11b” value [2, 4] was “elevated”. The “microglial MFI of CD172a” value [2, 4] was “elevated”, the “brain population frequency of lymphocytes (CD45+CD11b-)” value [2, 5] was “did not affect” and the “brain population frequency of macrophages (CD11b+CD163+)” value [2, 5] was “did not affect”. The “brain population frequency of microglia (CD45loCD11b+)” value [2, 5] was “did not affect”, the “brain population frequency of monocytes (CD45hiCD11b+)” value [2, 5] was “did not affect” and the “CD4+ lymphocytes in brain” value [2, 6] was “increased”. For the same compound, the “CD8+ lymphocytes in brain” value [2, 6] was “decreased” and the “frequency of MHCII+ classical (CD43-) monocytes in brain” value ([2]; 8 weeks, lesioned hemispheres, vs vehicle) was “elevated”.
